Biological target: human OX2R (Homo sapiens (Human), UniProt O43614)
Experiment: IPOne (IP-One, Cisbio) orexin receptor agonist assay in CHO cells expressing human OX2R
Details: for Emax (%) / Emax: hOX2R_IP, percentage of mean max effect of a reference compound at 1 uM (100% activity vs Orexin A); for Emax: CHO
Method: Both the OX1R and/or OX2R G-coupled protein receptors (GPCRs) couple through the Gaq signaling pathway, which ultimately promotes calcium mobilization via inositol triphosphate (IP3) production.
In a typical experiment, the OX1 and OX2 receptor agonist activity is determined in accordance with the following general experimental method. Chinese hamster ovary (CHO) cells expressing human OX1R and/or the human OX2R were grown in Iscove's modified DMEM containing glutaMAX®, 1% G418, 100 U/mL penicillin, 100 μg/mL streptomycin and 10% heat-inactivated qualified fetal bovine serum (FBS). […] During this incubation, IP-one detection reagents were prepared (38:1:1 lysis buffer:D2:AB-cryptate reagents).
For each compound, data were fit to a four parameter logistic fit (ActivityBase software) and the EC50 was reported as the inflection point of the resulting curve.

Sequence of human OX2R (O43614 whole entry): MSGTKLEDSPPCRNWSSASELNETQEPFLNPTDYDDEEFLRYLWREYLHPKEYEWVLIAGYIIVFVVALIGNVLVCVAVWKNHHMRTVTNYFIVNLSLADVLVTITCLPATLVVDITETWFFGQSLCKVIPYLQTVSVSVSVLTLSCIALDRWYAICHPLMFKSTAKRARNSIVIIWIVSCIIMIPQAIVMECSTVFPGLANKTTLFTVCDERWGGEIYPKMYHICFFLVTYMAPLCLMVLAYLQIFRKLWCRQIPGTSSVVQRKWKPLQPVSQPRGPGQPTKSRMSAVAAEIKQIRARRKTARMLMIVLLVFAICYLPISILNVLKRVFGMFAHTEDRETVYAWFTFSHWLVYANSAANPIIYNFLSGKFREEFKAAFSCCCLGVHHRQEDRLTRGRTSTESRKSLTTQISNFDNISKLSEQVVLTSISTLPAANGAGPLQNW

| SMILES | Emax (%) | IC50 [nM] | Emax [%] |
| --- | --- | --- | --- |
| COC(=O)N1[C@H](C)C[C@H](NS(C)(=O)=O)[C@@H]1CO[C@H]1CC[C@H](c2ncccn2)CC1 [Example 69, Methyl (2R,3S,5R)-5-methyl-3-(methylsulfonamido)-2-((((1r,4R)-4-(pyrimidin-2-yl)cyclohexyl)oxy)methyl)pyrrolidine-1-carboxylate] | 98 | – | – |
| CCOC(=O)N1[C@H](C)C[C@H](NS(C)(=O)=O)[C@@H]1COC1CCC(C(C)C)CC1 (stereo partly drawn) [Example 7, ethyl (2R,3S,5R)-2-(((4-isopropylcyclohexyl)oxy)meth-yl)-5-methyl-3-(methylsulfonamido)pyrrolidine-1-carboxylate] | – | 45.5 | 100 |
| COC(=O)N1[C@H](C)C[C@H](NS(=O)(=O)N(C)C)[C@@H]1CO[C@H]1CCC(c2cccc(F)c2)C(O)C1 (stereo partly drawn) [Example 36, methyl (2R,3S,5R)-3-((N,N-dimethylsulfamoyl)amino)-2-((((1S)-4-(3-fluorophenyl)-3-hydroxycyclohexyl)oxy)methyl)-5-methylpyrrolidine-1-carboxylate] | – | 0.76 | 99 |
| COC(=O)N1[C@H](C)C[C@H](NS(C)(=O)=O)[C@@H]1CO[C@H]1CC[C@@H](c2ccc(F)c(F)c2)CC1 [Example 73, Methyl (2R,3S,5R)-2-((((1s,4S)-4-(3,4-difluorophenyl)cyclohexyl)oxy)methyl)-5-methyl-3-(methylsulfonamido)pyrrolidine-1-carboxylate] | – | – | 101 |
| COC(=O)N1[C@H](C)C[C@H](NS(C)(=O)=O)[C@@H]1COC1CCC(c2ccccc2)CC1OC (stereo partly drawn) [Example 33, methyl (2R,3S,5R)-2-(((2-methoxy-4-phenylcyclohexyl)oxy)methyl)-5-methyl-3-(methylsulfonamido)pyrrolidine-1-carboxylate] | – | 2150 | 92 |
| CNS(=O)(=O)N[C@H]1C[C@@H](C)N(C(=O)OCC(F)F)[C@H]1CO[C@H]1CC[C@@H](c2ccccc2)CC1 [Example 16, 2,2-difluoroethyl (2R,3S,5R)-5-methyl-3-((N-methylsulfamoyl)amino)-2-((((1s,4S)-4-phenylcyclohexyl)oxy)methyl)pyrrolidine-1-carboxylate] | 101 | – | – |
| C[C@@H]1C[C@H](NS(=O)(=O)N(C)C)[C@H](CO[C@H]2CC[C@@H](c3cc(F)ccc3F)CC2)N1C(=O)OCC(F)F [Example 22, 2,2-difluoroethyl (2R,3S,5R)-2-((((1r,4R)-4-(2,5-difluorophenyl)-cyclohexyl)oxy)methyl)-3-((N,N-dimethylsulfamoyl)amino)-5-methylpyrrolidine-1-carboxylate] | – | – | 100 |
| CNS(=O)(=O)N[C@H]1C[C@@H](C)N(C(=O)OC(C)C)[C@H]1COC1CCN(c2ncccn2)CC1 [Example 38, isopropyl (2R,3S,5R)-5-methyl-3-((N-methylsulfamoyl)amino)-2-(((1-(pyrimidin-2-yl)piperidin-4-yl)oxy)methyl)pyrrolidine-1-carboxylate] | – | 7.07 | 100 |
| COC(=O)N1[C@H](C)C[C@H](NS(C)(=O)=O)[C@@H]1CO[C@H]1CC[C@@H](c2c(F)ccc(F)c2F)CC1 [Example 28, methyl (2R,3S,5R)-5-methyl-3-(methylsulfonamido)-2-((((1r,4R)-4-(2,3,6-trifluorophenyl)-cyclohexyl)oxy)methyl)pyrro-lidine-1-carboxylate] | – | – | 102 |
| COC(=O)N1[C@H](C)C[C@H](NS(=O)(=O)N(C)C)[C@@H]1CO[C@H]1CC[C@@H](c2cc(F)cc(F)c2)CC1 [Example 32, methyl (2R,3S,5R)-2-((((1s,4S)-4-(3,5-difluorophenyl)cyclohexyl)oxy)methyl)-3-((N,N-dimethylsulfamoyl)amino)-5-methylpyrrolidine-1-carboxylate] | – | – | 101 |
| COC(=O)N1[C@H](C)C[C@H](NS(C)(=O)=O)[C@@H]1CO[C@H]1CC[C@H](c2cc(F)cc(F)c2)CC1 [Example 72, Methyl (2R,3S,5R)-2-((((1r,4R)-4-(3,5-difluorophenyl)cyclohexyl)oxy)methyl)-5-methyl-3-(methylsulfonamido)pyrrolidine-1-carboxylate] | 100 | – | – |
| CC[C@H]1C[C@@H](NS(C)(=O)=O)[C@@H](CO[C@H]2CC[C@@H](c3ccccc3)CC2)N1C(=O)OC [Example 45, methyl (2S,3R,5S)-5-ethyl-3-(methylsulfonamido)-2-((((CIS)-4-phenylcyclohexyl)oxy)methyl)-pyrrolidine-1-carboxylate] | – | – | 62 |
| COC(=O)N1[C@H](CC#N)C[C@H](NS(=O)(=O)N(C)C)[C@@H]1CO[C@H]1CC[C@@H](c2cccc(F)c2)CC1 [Example 52, methyl (2R,3S,5S)-5-(cyanomethyl)-3-((N,N-dimethylsulfamoyl)amino)-2-((((CIS)-4-(3-fluorophenyl)cyclohexyl)oxy)methyl)pyrrolidine-1-carboxylate] | – | 7.8 | 102 |
| COC(=O)N1[C@@H](CO[C@H]2CC[C@@H](c3ccccc3)CC2)[C@@H](NS(C)(=O)=O)CC12CC2 (relative stereo) [Example 41, methyl (CIS)-6-(methylsulfonamido)-5-((((CIS)-4-phenylcyclohexyl)oxy)methyl)-4-azaspiro[2.4]heptane-4-carboxylate] | – | 224 | 99 |
| COC(=O)N1[C@H](C)C[C@H](NS(C)(=O)=O)[C@@H]1CO[C@H]1CC[C@@H](c2ccccc2C(F)(F)F)CC1 [Example 27, methyl (2R,3S,5R)-5-methyl-3-(methylsulfonamido)-2-((((1r,4R)-4-(2-(trifluorometh-yl)phenyl)cyclohexyl)oxy)methyl)pyrrolidine-1-carboxylate] | – | – | 100 |
| CC(C)OC(=O)N1[C@H](C)C[C@H](NS(=O)(=O)N(C)C)[C@@H]1COC1CCN(c2ncc(F)cn2)CC1 [Example 39, isopropyl (2R,3S,5R)-3-((N,N-dimethylsulfamoyl)amino)-2-(((1-(5-fluoropyrimidin-2-yl)piperidin-4-yl)oxy)methyl)-5-methylpyrrolidine-1-carboxylate] | – | – | 101 |
| CC(C)C1CCC(OC[C@H]2[C@@H](NS(C)(=O)=O)C[C@@H](C)N2C(=O)OCC(F)F)CC1 (stereo partly drawn) [Example 9, 2,2-difluoroethyl (2R,3S,5R)-2-(((4-isopropylcyclohexyl)oxy)meth-yl)-5-methyl-3-(methylsulfonamido)pyrrolidine-1-carboxylate] | – | – | 101 |
| COC(=O)N1[C@H](C)C[C@H](NS(=O)(=O)CF)[C@@H]1CO[C@H]1CC[C@@H](c2ccccc2)CC1 [Example 29, methyl (2R,3S,5R)-3-((fluoromethyl)sulfonamido)-5-methyl-2-((((1r,4R)-4-phenylcyclohexyl)oxy)meth-yl)pyrrolidine-1-carboxylate] | – | – | 102 |
| CC(C)OC(=O)N1[C@H](C)C[C@H](NS(C)(=O)=O)[C@@H]1COC1CCC(C(C)C)CC1 (stereo partly drawn) [Example 5, isopropyl (2R,3S,5R)-2-(((4-isopropylcyclohexyl)oxy)meth-yl)-5-methyl-3-(methylsulfonamido)pyrrolidine-1-carboxylate] | – | – | 101 |
| COC(=O)N1[C@H](C)C[C@H](NS(C)(=O)=O)[C@@H]1COC1CCC(c2ccccc2)CC1C (stereo partly drawn) [Example 34, methyl (2R,3S,5R)-5-methyl-2-(((2-methyl-4-phenylcyclohexyl)oxy)methyl)-3-(methylsulfonamido)pyrrolidine-1-carboxylate] | – | 37.5 | 99 |
